Results published in patent US11813277B2, “Methods and agents for modulating inflammation” (The Regents of the University of California, priority 2018, dated 2023).

What was measured:
acute liver injury = experiment: Murine acute liver injury model; type: in vivo
[1] = system: M(IL-4) polarization of BMDMs; experiment: Flow cytometry of IL-4-associated cell surface markers in BMDMs; type: cell-based, mouse
Procedure: (§1) For all gene expression and flow cytometry experiments described below, day 6 BMDM were plated at 3×10^5 cell/well in 12-well plates. The next day, cells were treated with appropriate compounds (and duration as indicated in figures and below) in DMEM supplemented with 5% FBS, 2 mM L-glutamine, 100 units/mL, 100 μg/mL penicillin/streptomycin, 500 μM of sodium pyruvate and 5% v/v conditioned media containing macrophage colony stimulating factor (M-CSF).
(§2) For flow cytometry experiments involving etomoxir (FIG. 1G, FIG. 2A, FIG. 2D, FIG. 3A, FIG. 3B, FIG. 3G, FIG. 3H): BMDMs were mock-treated (media replacement only) or treated with 20 ng/mL of IL-4±3 μM or 200 μM of etomoxir for 48 hr. When measuring expression of M(IL-4)-associated genes in response to etomoxir (FIG. 1H, FIG. 2B), BMDMs were mock-treated or treated with 20 ng/mL of IL4±etomoxir as indicated for 24 hr.
(§3) For experiments involving respiratory chain inhibitors: BMDMs were mock-treated (media replacement only) or treated with 20 ng/mL of IL4±1.2 μM oligomycin (Oligo), 200 nM rotenone (Rot), 200 nM antimycin A (AntiA), 100 nM piericidin A (PierA), or 5 μM carboxyatractylate (CAT) for either 24 (FIG. 4G, FIG. 4H, FIG. 6G) or 48 hr (FIG. 4F, FIG. 7D). All inhibitors were given as co-treatments simultaneously with IL-4.
For experiments involving CoA supplementation (FIG. 10A, FIG. 10B, FIG. 10C, FIG. 10D, FIG. 10E, FIG. 9C, FIG. 9D): BMDMs were mock-treated (media replacement only) or treated with 20 ng/mL of IL4±etomoxir (concentration indicated in figures)±CoA (concentration indicated in figures) for 48 hr. Etomoxir and CoA were given as co-treatments simultaneously with IL-4.
Prior to FACS analysis, BMDMs were detached using 350 μL of Accutase, followed by two washes with FACS buffer (PBS+1% (v/v) BSA+0.05% (w/v) sodium azide). Anti-mouse CD16/32 antibody was used at a dilution of 1:500, while all other antibodies were used at a dilution of 1:250. All flow cytometry data were captured using BD FACSVerse flow cytometer and analyzed using the FlowJo X 10.0.7r2 software. In all, 2×104 live events were acquired for each sample (gated on DAPIneg). For analysis, CD206+/CD71+ and CD206+/CD301+ populations were gated based on Fluorescence Minus One (FMO) controls.

Limonoids sigmodontis = experiment: Murine model of nematode infection; conditions: mouse, in vivo
BMDMs [2] = experiment: Basal mitochondrial respiration in intact BMDMs; type: cell-based, mouse
Procedure: All respirometry studies were conducted in either a Seahorse XF96 or XFe96 Analyzer. All experiments were conducted at 37° C., and at pH 7.4 (intact cells) or 7.2 (permeabilized cells and isolated mitochondria). Calculation of respiratory parameters was made according to standard protocols (Divakaruni, A. S., Paradyse, A., Ferrick, D. A., Murphy, A. N., and Jastroch, M. (2014a) Analysis and interpretation of microplate-based oxygen consumption and pH data. Meth. Enzym 547, 509-54), and all rates were corrected for non-mitochondrial respiration/background signal by subtracting the oxygen consumption rate insensitive to rotenone plus antimycin A.
Respiration in intact BMDMs was measured in medium containing 8 mM glucose, 2 mM glutamine, 2 mM pyruvate, and 5 mM HEPES. Cells were plated at 5.0×10^4 cells/well and assayed after 48 hr. When measuring the response to IL-4, cells were treated with 20 ng/mL of IL-4 24 hr. after initial plating, and respiration was measured the following day (˜48 hr after initial seeding). […]

BMDMs [3] = experiment: Intracellular free coenzyme A levels in BMDMs; type: cell-based, mouse; conditions: IL-4
Procedure: On Day 6 of differentiation, BMDMs were seeded at 1.2×10^6 cells/well in 6-well plates. 24 hr later, BMDMs were mock-treated or co-treated with 20 ng/mL IL-4±200 μM etomoxir±500 μM CoA in DMEM supplemented with 5% FBS, 2 mM L-glutamine, 100 units/mL, […] penicillin/streptomycin, 500 μM of sodium pyruvate and 5% v/v conditioned media containing macrophage colony stimulating factor (M-CSF) for 20 hr. Prior to sample collections, cells were washed with 600 μL of 0.9% (w/v) NaCl twice. Three wells per replicate per treatment were combined in 2 mL centrifuge tubes and centrifuged at 500 g for 5 mins at 4° C. The supernatant was removed, and the cell pellet was re-suspended in 75 μL of ice-cold 0.7% (v/v) perchloric acid for 5 min. Samples were then centrifuged at 10,000 g for 7 mins at 4° C. and the resulting supernatant was adjusted to pH 7 with 2M NaOH and 500 mM K2HPO4. The coenzyme A concentration was determined with Coenzyme A Assay Kit following manufacturer's instructions (Sigma MAK034) using 40 μL of sample supernatant. Coenzyme A levels were normalized to total cellular protein (BCA method).

diet-induced NASH = experiment: Rat model of diet-induced NASH; type: in vivo
[4] = system: Relma, Mgl2, Ym1, Fabp4, Arg1 expression; experiment: qPCR of IL-4-associated genes in BMDMs; type: cell-based, mouse; conditions: IL-4, 24 hr
Procedure: as §1, §2, §3
RNA was isolated with TRIzol, then cDNA was synthesized with high-capacity cDNA reverse transcription kit. KAPA SYBR FAST qPCR Master Mix kit and a LightCycler 480 were used for quantitative RT-PCR. Fold change related to the control group was calculated using […] with 36b4 as the reference gene.

BMDMs [5] = experiment: Cellular ATP production rates from respirometry and lactate assay; type: cell-based, mouse; conditions: 200 nM rotenone, IL-4 24 hr
Procedure: Respiration in intact BMDMs was measured in medium containing 8 mM glucose, 2 mM glutamine, 2 mM pyruvate, and 5 mM HEPES. Cells were plated at 5.0×10^4 cells/well and assayed after 48 hr. When measuring the response to IL-4, cells were treated with 20 ng/mL of IL-4 24 hr. after initial plating, and respiration was measured the following day (˜48 hr after initial seeding). Respiration was measured in response to oligomycin (1 μM), FCCP (1.2 μM), and rotenone (0.2 μM) with antimycin A (1 μM).
Under conditions matching intact cell respirometry for BMDMs, the extracellular medium was harvested and lactate was analyzed as previously described (Mookerjee, S. A., Goncalves, R. L., Gerencser, A. A., Nicholls, D. G., and Brand, M. D. (2015). The contributions of respiration and glycolysis to extracellular acid production. Biochim et Biophys Acta. 1847, 171-81; Divakaruni, A. S., Wallace, M., Buren, C., Martyniuk, K., Andreyev, A. Y., Li, E., Fields, J. A., Cordes, T., Reynolds, I. J., Bloodgood, B. L., et al., (2017b) Inhibition of the mitochondrial pyruvate carrier protects from excitotoxic neuronal death. J. Cell Biol. 216, 1091-1105). […] The reaction velocity was measured after 2 min (340/460 nm excitation/emission). […]

LCFA oxidation in BMDMs = experiment: 9,10-3H-palmitate oxidation (3H2O release) in BMDMs; type: cell-based, mouse; conditions: 200 nM rotenone or 200 nM antimycin A, IL-4-stimulated
Procedure: BMDMs at day 6 of differentiation were seeded at 3×10^5 cells/well in 12 well plates in BMDM media. The next day, cells were treated in DMEM containing 25 mM glucose supplemented with 5% FBS, 2 mM L-Glutamax, 100 units/mL, 100 μg/mL penicillin/streptomycin, 1 mM of sodium pyruvate, 1 mM carnitine, and 5% v/v conditioned media containing macrophage colony stimulating factor (M-CSF) under one of 5 conditions: control, 20 ng/mL of IL-4±3 μM or 200 μM of etomoxir, or 200 nM rotenone, or 200 nM antimycin A for 24 hr. Fatty acid oxidation was measured 24 hours later as previously described (Rognstad, R. (1991) Estimation of peroxisomal and mitochondrial fatty acid oxidation in rat hepatocytes using tritiated substrates. Biochem J 279:147-150, 1991; Cha, B. S., Ciaraldi, T. P., Park, K. S., Carter, L., Mudaliar, S. R., and Henry R R. (2005) Impaired fatty acid metabolism in type 2 diabetic skeletal muscle cells is reversed by PPARgamma agonists. Am J Physiol Endocrinol Metab. 289, E151-9) following a fluid change to DMEM with components as described above except 10 mM glucose and 0.2 μCi (final concentration of 5 μM) BSA-conjugated [9,10-3H]palmitic acid. No additional IL-4 was added at the time of this fluid change, but etomoxir, rotenone and antimycin A were added, and the plates were placed in a […] incubator at 37° C. for 3 hr. After incubation, a 100 μL aliquot of the culture medium was passed over an ion-exchange resin, and the column was washed twice with 0.75 ml of water. Free fatty acids were retained by the resin, whereas the tritium hydrolyzed from radiolabeled palmitate catabolism was released as labeled water, which passes freely through the resin, and is subsequently counted for radioactivity. All data are corrected for protein content in each well. There were 3 technical replicates for each condition, and 4 biological replicates arising from 4 separate animals.

[6] = 500 μM CoA, absence of etomoxir

## CC(C)(COP(=O)(O)OP(=O)(O)OC[C@H]1O[C@@H](n2cnc3c(N)ncnc32)[C@H](O)[C@@H]1OP(=O)(O)O)[C@@H](O)C(=O)NCCC(=O)NCCS [CoA, [(2R,3S,4R,5R)-5-(6-aminopurin-9-yl)-4-hydroxy-3-phosphonooxy-oxolan-2-yl]methyl [hydroxy-[(3R)-3-hydroxy-2,2-dimethyl-4-oxo-4-[[3-oxo-3-(2-sulfanylethylamino)propyl]amino]butoxy]phosphoryl] hydrogen phosphate]
Acute liver injury; intravenous
  healing time and resolution of injury: decrease healing time and improve the extent of resolution from the injury
Acute liver injury; peritoneal macrophages and/or Kupffer cells
  expression of alternative liver macrophage activation biomarkers: Increased expression
[1]; 200 μM etomoxir, varying CoA
  rescue of cell surface marker expression: concentration-dependent function of exogenously added CoA
[1]; 500 μM CoA with 200 μM etomoxir, IL-4
  reduction of CD206+/CD71+ cells upon etomoxir treatment: can be rescued
[1]; [6]
  IL-4-induced expression of CD206 and CD71: significantly increased
[1]; CoA, absence of IL-4
  polarization: no effect on polarization
[1]; LysM-Cre Cpt1a-/-, LysM-Cre Cpt2-/-, CD11c-Cre Cpt1a-/- BMDMs, 200 μM etomoxir, 500 μM CoA
  etomoxir-induced reduction in CD206+/CD71+ cells: could be rescued
Limonoids sigmodontis
  parasite burden and replication: reduce parasite burden and replication
BMDMs [2]; CoA supplementation, BMDMs treated with excess etomoxir
  basal respiration: did not alter basal respiration
BMDMs [2]; CoA with IL-4
  oxygen consumption: does not enhance oxygen consumption
BMDMs [3]; 500 μM CoA with 200 μM etomoxir
  intracellular free CoA levels: could be restored
BMDMs [3]; [6]
  intracellular free CoA levels: significantly increased

## CC(CNC(=O)[C@H](O)C(C)(C)CO)C(=O)NCCc1ccccc1 (stereo partly drawn) [alpha-methyl-N-phenethyl-pantothenamide]
diet-induced NASH; Kupffer cells and/or myeloid-derived precursors from the liver
  expression of alternative macrophage activation biomarkers: Decreased expression
diet-induced NASH; intravenous
  inflammation and fibrosis in the liver: reduce inflammation and fibrosis in the liver

## C=C(C)[C@H]1Cc2c(ccc3c2O[C@@H]2COc4cc(OC)c(OC)cc4[C@@H]2C3=O)O1 [rotenone]
[1]; oxidative phosphorylation inhibitors co-treated with IL-4
  population of CD206+/CD71+ cells: none of the inhibitors of ATP synthesis or the electron transport chain significantly lowered
[4]; electron transport chain inhibitors
  IL-4-induced expression of Relma, Ym1, Mgl2: failed to reduce
[4]; mitochondrial inhibitors
  expression of Ym1 and Arg1: increased expression
BMDMs [5]
  ATP production from oxidative phosphorylation: limited ATP production from oxidative phosphorylation
  overall rates of energy metabolism (ATP production): maintain overall rates of energy metabolism
BMDMs [2]; 1.2 μM oligomycin, 200 nM rotenone, 200 nM antimycin A, 100 nM piericidin A, 5 μM CAT
  respiration at 24 hr: strongly reduced respiration
LCFA oxidation in BMDMs
  3H2O release from 9,10-3H-palmitate: suppressed LCFA oxidation to levels in line with 200 μM etomoxir
